Experimental data from PubChem BioAssay (NCI).
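Compound exposure: 48 hours, 5 concentrations, 96-well plates. TGI marks complete inhibition of growth.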

These compounds were tested on SK-MEL-2 melanoma (assay: NCI anticancer screen, dose series, 48 h).

| SMILES | TGI [µM] |
| --- | --- |
| CC(C)(C)[Si](C)(C)OCC1OC(n2cnc3c(N)ncnc32)C(O[Si](C)(C)C(C)(C)C)C1O[Si](C)(C)C(C)(C)C (stereo not drawn) | 49.4 |

These compounds were tested on SR leukemia (assay: NCI anticancer screen, dose series, 48 h).

| SMILES | TGI [µM] |
| --- | --- |
| COc1cc(/C=C\C(=O)O)ccc1OCc1ccccc1 | > 100 |
| C=C1CC(C)(c2ccc(Nc3nc4ccccc4c4occc34)cc2)OC1=O (stereo not drawn) | 4.53 |
| CC1CC(=O)Nc2nc3ccccc3n21 (stereo not drawn) | > 100 |
| CC(C)(C)[Si](C)(C)OCC1OC(n2cnc3c(N)ncnc32)C(O[Si](C)(C)C(C)(C)C)C1O[Si](C)(C)C(C)(C)C (stereo not drawn) | 86.7 |

Each compound was assayed on NCI-H522 lung (assay: NCI anticancer screen, dose series, 48 h).

| SMILES | TGI [µM] |
| --- | --- |
| COc1cc(/C=C\C(=O)O)ccc1OCc1ccccc1 | > 100 |
| CC1CC(=O)Nc2nc3ccccc3n21 (stereo not drawn) | > 100 |
| CC(C)(C)[Si](C)(C)OCC1OC(n2cnc3c(N)ncnc32)C(O[Si](C)(C)C(C)(C)C)C1O[Si](C)(C)C(C)(C)C (stereo not drawn) | 21.3 |

These compounds were tested on RPMI-8226 leukemia (assay: NCI anticancer screen, dose series, 48 h).

| SMILES | TGI [µM] |
| --- | --- |
| COc1cc(/C=C\C(=O)O)ccc1OCc1ccccc1 | > 100 |
| C=C1CC(C)(c2ccc(Nc3nc4ccccc4c4occc34)cc2)OC1=O (stereo not drawn) | 4.47 |
| CC1CC(=O)Nc2nc3ccccc3n21 (stereo not drawn) | > 100 |

These compounds were tested on RXF 393 renal (assay: NCI anticancer screen, dose series, 48 h).

| SMILES | TGI [µM] |
| --- | --- |
| COc1cc(/C=C\C(=O)O)ccc1OCc1ccccc1 | > 100 |
| C=C1CC(C)(c2ccc(Nc3nc4ccccc4c4occc34)cc2)OC1=O (stereo not drawn) | 4.92 |
| CC1CC(=O)Nc2nc3ccccc3n21 (stereo not drawn) | > 100 |

Each compound was assayed on KM12 colon (assay: NCI anticancer screen, dose series, 48 h).

| SMILES | TGI [µM] |
| --- | --- |
| COc1cc(/C=C\C(=O)O)ccc1OCc1ccccc1 | > 100 |
| C=C1CC(C)(c2ccc(Nc3nc4ccccc4c4occc34)cc2)OC1=O (stereo not drawn) | 34 |
| CC1CC(=O)Nc2nc3ccccc3n21 (stereo not drawn) | > 100 |

The compounds below were run on 786-0 renal (assay: NCI anticancer screen, dose series, 48 h).

| SMILES | TGI [µM] |
| --- | --- |
| COc1cc(/C=C\C(=O)O)ccc1OCc1ccccc1 | > 100 |
| C=C1CC(C)(c2ccc(Nc3nc4ccccc4c4occc34)cc2)OC1=O (stereo not drawn) | 3.79 |
| CC1CC(=O)Nc2nc3ccccc3n21 (stereo not drawn) | > 100 |
| CC(C)(C)[Si](C)(C)OCC1OC(n2cnc3c(N)ncnc32)C(O[Si](C)(C)C(C)(C)C)C1O[Si](C)(C)C(C)(C)C (stereo not drawn) | 18.6 |

These compounds were tested on HS 578T breast (assay: NCI anticancer screen, dose series, 48 h).

| SMILES | TGI [µM] |
| --- | --- |
| COc1cc(/C=C\C(=O)O)ccc1OCc1ccccc1 | > 100 |
| CC1CC(=O)Nc2nc3ccccc3n21 (stereo not drawn) | > 100 |
| CC(C)(C)[Si](C)(C)OCC1OC(n2cnc3c(N)ncnc32)C(O[Si](C)(C)C(C)(C)C)C1O[Si](C)(C)C(C)(C)C (stereo not drawn) | 58.5 |

These compounds were tested on CCRF-CEM leukemia (assay: NCI anticancer screen, dose series, 48 h).

| SMILES | TGI [µM] |
| --- | --- |
| COc1cc(/C=C\C(=O)O)ccc1OCc1ccccc1 | > 100 |
| C=C1CC(C)(c2ccc(Nc3nc4ccccc4c4occc34)cc2)OC1=O (stereo not drawn) | 3.76 |
| CC1CC(=O)Nc2nc3ccccc3n21 (stereo not drawn) | > 100 |

Each compound was assayed on SK-MEL-5 melanoma (assay: NCI anticancer screen, dose series, 48 h).

| SMILES | TGI [µM] |
| --- | --- |
| COc1cc(/C=C\C(=O)O)ccc1OCc1ccccc1 | > 100 |
| C=C1CC(C)(c2ccc(Nc3nc4ccccc4c4occc34)cc2)OC1=O (stereo not drawn) | 19.6 |
| CC1CC(=O)Nc2nc3ccccc3n21 (stereo not drawn) | > 100 |
| CC(C)(C)[Si](C)(C)OCC1OC(n2cnc3c(N)ncnc32)C(O[Si](C)(C)C(C)(C)C)C1O[Si](C)(C)C(C)(C)C (stereo not drawn) | 14.4 |

These compounds were tested on HCC-2998 colon (assay: NCI anticancer screen, dose series, 48 h).

| SMILES | TGI [µM] |
| --- | --- |
| COc1cc(/C=C\C(=O)O)ccc1OCc1ccccc1 | > 100 |
| C=C1CC(C)(c2ccc(Nc3nc4ccccc4c4occc34)cc2)OC1=O (stereo not drawn) | 5.63 |

These compounds were tested on MCF7 breast (assay: NCI anticancer screen, dose series, 48 h).

| SMILES | TGI [µM] |
| --- | --- |
| COc1cc(/C=C\C(=O)O)ccc1OCc1ccccc1 | > 100 |
| C=C1CC(C)(c2ccc(Nc3nc4ccccc4c4occc34)cc2)OC1=O (stereo not drawn) | > 100 |
| CC1CC(=O)Nc2nc3ccccc3n21 (stereo not drawn) | > 100 |

The compounds below were run on IGROV1 ovarian (assay: NCI anticancer screen, dose series, 48 h).

| SMILES | TGI [µM] |
| --- | --- |
| COc1cc(/C=C\C(=O)O)ccc1OCc1ccccc1 | > 100 |
| CC1CC(=O)Nc2nc3ccccc3n21 (stereo not drawn) | > 100 |
| CC(C)(C)[Si](C)(C)OCC1OC(n2cnc3c(N)ncnc32)C(O[Si](C)(C)C(C)(C)C)C1O[Si](C)(C)C(C)(C)C (stereo not drawn) | > 100 |

These compounds were tested on NCI-H226 lung (assay: NCI anticancer screen, dose series, 48 h).

| SMILES | TGI [µM] |
| --- | --- |
| C=C1CC(C)(c2ccc(Nc3nc4ccccc4c4occc34)cc2)OC1=O (stereo not drawn) | 1.94 |
| CC1CC(=O)Nc2nc3ccccc3n21 (stereo not drawn) | > 100 |

These compounds were tested on OVCAR-5 ovarian (assay: NCI anticancer screen, dose series, 48 h).

| SMILES | TGI [µM] |
| --- | --- |
| COc1cc(/C=C\C(=O)O)ccc1OCc1ccccc1 | > 100 |
| C=C1CC(C)(c2ccc(Nc3nc4ccccc4c4occc34)cc2)OC1=O (stereo not drawn) | 30.6 |
| CC1CC(=O)Nc2nc3ccccc3n21 (stereo not drawn) | > 100 |

The compounds below were run on OVCAR-3 ovarian (assay: NCI anticancer screen, dose series, 48 h).

| SMILES | TGI [µM] |
| --- | --- |
| COc1cc(/C=C\C(=O)O)ccc1OCc1ccccc1 | > 100 |
| C=C1CC(C)(c2ccc(Nc3nc4ccccc4c4occc34)cc2)OC1=O (stereo not drawn) | 12.9 |
| CC1CC(=O)Nc2nc3ccccc3n21 (stereo not drawn) | > 100 |
| CC(C)(C)[Si](C)(C)OCC1OC(n2cnc3c(N)ncnc32)C(O[Si](C)(C)C(C)(C)C)C1O[Si](C)(C)C(C)(C)C (stereo not drawn) | 13.8 |
